Assay results: patent US10154813B1, “Method and apparatus for patient skin color monitoring and drug efficacy measurement” (priority 2017, dated 2018)
Where “and” joins values, the source holds several entries; their conditions need not be identical. Equal entries are not always repeated.

System: microvascular endothelium (skin, right arm, anterior position) of Congestive Heart Failure patients
Experiment: Skin colorimetry (a, b, L) before and after application of “μ” in Congestive Heart Failure patients on Valsartan, monthly for 9 months
Type: in vivo, human
Set-up: key to a. Wet after “μ”: a = red/green colour coordinate (colorimeter); key to b (Wet): b = yellow/blue colour coordinate (colorimeter)
Conditions: for L (Wet) / a. Wet after “μ” / b (Wet): wet after μ; for L / a / b: baseline before μ
Text: As stated above, one available quantitative color system is the L*a*b* color space or Hunter L/a/b color space, which can be visualized as a rectangular 3D coordinate system. L indicates lightness, a is the red/green coordinate, and b is the yellow/blue coordinate. L can have a value from 0 (black) to 100 (perfect reflection). The a and b axes have no numerical limits. Coordinate a is positive when red, and negative when green. Positive b is yellow, and negative b is blue. Colors can be described numerically using numerical values for L, a, and b. Differences between two colors can be quantified for each of the individual L/a/b values (ΔL, Δa, Δb). Overall differences between two colors can be derived numerically based on the three Δ values.
μ=drug applied before colorimeter and/or spectrophotometer measurements.
L1, a1, b1=Initial measurement.
L2, a2, b2=Measurement with μ applied. L2−L1=ΔLμ(L2 minus L1)=change in lightness and darkness(+=lighter,−=darker) a2−a1=Δaμ(a2 minus a1)=change in red and green(+=redder,−=greener) b2−b1=Δbμ(b2 minus b1)=change in yellow and blue(+=yellower,−=bluer)
With reference to the tables below and to FIG. 18, the three different patients (Patient A, Patient B, and Patient C) had new diagnosis of Congestive Heart Failure (CHF). Patient A, B, C have diastolic and systolic heart failure with an ejection fraction of 35% with normal coronary artery disease by angiography. All three patients were started on an angiotensin receptor blocker Valsartan and followed continuously every month for 9 months. The a, b, L were calculated before and after the “μ” has been applied shown in color red. The blue indicates the baseline. At the initiation of the CHF medication Valsartan, the patient has a normal response of the microvascular endothelium after the application of “μ” in the calculations of a, b, L. All colorimetric and spectrophotometric calculations are performed at the same location on the right arm, in the anterior position in all three patients continuously for 9 months. The titration of Valsartan was maximized in all three patients. […] This occurs because it is the desired effect of the CHF medication in the above patients over the period of 9 months. The current standard of care is to improve the heart function in CHF. The cardiologist lowers the ionotropic and chronotropic effect of the heart in CHF patients. The above methodology allows for the appropriate and desired effect in being able to titrate the medication and know how much medicine to administer to the patient by either decreasing or increasing the Valsartan dose. This is performed to achieve the necessary effect of pharmacotherapy with limiting the exacerbation of heart failure symptoms in such patients. It allows for healthcare providers to also know if the effects of the medications are adequate and they are in fact working appropriately on the microscopic endothelium level of the patient. As the months progressed in the patients above, the red line calculations indicate a decreased microvascular endothelial flow. This is evaluated by measuring a decrease in the a shift.
This correlates with a decrease in the ionotropic and chronotropic effect of the heart in these patients. This is the desired effect and outcome that the cardiologist is trying to achieve. The calculation of a, b, L, after “μ” is applied is objectively calculated in these CHF patients, allowing for the proper titration of maximum medication administration while limiting the side effects of the medications concurrently.

CCCCC(=O)N(Cc1ccc(-c2ccccc2-c2nnn[nH]2)cc1)[C@H](C(=O)O)C(C)C [Valsartan]
L (Wet) (Patient B, April 2017): 72.58 | a. Wet after “μ” (Patient B, April 2017): 3.03 | b (Wet) (Patient B, April 2017): 15.69 | L (Wet) (Patient B, December 2016): 73.59 | a. Wet after “μ” (Patient B, December 2016): 4.04 | b (Wet) (Patient B, December 2016): 15.27 | L (Wet) (Patient B, February 2017): 72.56 | a. Wet after “μ” (Patient B, February 2017): 3.3 | b (Wet) (Patient B, February 2017): 14.4 | L (Wet) (Patient B, January 2017): 74.23 | a. Wet after “μ” (Patient B, January 2017): 3.37 | b (Wet) (Patient B, January 2017): 15.38 | L (Wet) (Patient B, July 2017): 72.54 | a. Wet after “μ” (Patient B, July 2017): 2.25 | b (Wet) (Patient B, July 2017): 14.39 | L (Wet) (Patient B, June 2017): 72.47 | a. Wet after “μ” (Patient B, June 2017): 2.88 | b (Wet) (Patient B, June 2017): 15.29 | L (Wet) (Patient B, March 2017): 72.62 | a. Wet after “μ” (Patient B, March 2017): 3.29 | b (Wet) (Patient B, March 2017): 15.85 | L (Wet) (Patient B, May 2017): 73.47 | a. Wet after “μ” (Patient B, May 2017): 3.71 | b (Wet) (Patient B, May 2017): 15.54 | L (Wet) (Patient B, November 2016): 70.43 | a. Wet after “μ” (Patient B, November 2016): 4.89 and 4.79 | b (Wet) (Patient B, November 2016): 15.14 | L (Patient C, April 2017): 73.05 | a (Patient C, April 2017): 3.16 | b (Patient C, April 2017): 16.12 | L (Patient C, December 2016): 75.47 | a (Patient C, December 2016): 2.84 | b (Patient C, December 2016): 13.73 | L (Patient C, February 2017): 73.55 | a (Patient C, February 2017): 3.64 | b (Patient C, February 2017): 14.96 | L (Patient C, January 2017): 74.63 | a (Patient C, January 2017): 3.93 | b (Patient C, January 2017): 15.73 | L (Patient C, July 2017): 75.00 | a (Patient C, July 2017): 3.55 | b (Patient C, July 2017): 14.75 | L (Patient C, June 2017): 74.45 | a (Patient C, June 2017): 3.44 | b (Patient C, June 2017): 14.63 | L (Patient C, March 2017): 74.06 | a (Patient C, March 2017): 3.20 | b (Patient C, March 2017): 14.54 | L (Patient C, May 2017): 75.26 | a (Patient C, May 2017): 3.50 | b (Patient C, May 2017): 15.22 | L (Patient C, November 2016): 73.84 | a (Patient C, November 2016): 3.35 | b (Patient C, November 2016): 14.01 | L (Wet) (Patient C, April 2017): 72.89 | a. Wet after “μ” (Patient C, April 2017): 2.95 | b (Wet) (Patient C, April 2017): 17.26 | L (Wet) (Patient C, December 2016): 72.57 | a. Wet after “μ” (Patient C, December 2016): 4.84 | b (Wet) (Patient C, December 2016): 14.8 | L (Wet) (Patient C, February 2017): 72.41 | a. Wet after “μ” (Patient C, February 2017): 3.07 | b (Wet) (Patient C, February 2017): 15.66 | L (Wet) (Patient C, January 2017): 74.12 | a. Wet after “μ” (Patient C, January 2017): 3.18 | b (Wet) (Patient C, January 2017): 15.31 | L (Wet) (Patient C, July 2017): 74.72 | a. Wet after “μ” (Patient C, July 2017): 2.3 | b (Wet) (Patient C, July 2017): 14.39 | L (Wet) (Patient C, June 2017): 72.13 | a. Wet after “μ” (Patient C, June 2017): 2.75 | b (Wet) (Patient C, June 2017): 15.6 | L (Wet) (Patient C, March 2017): 73.55 | a. Wet after “μ” (Patient C, March 2017): 3.05 | b (Wet) (Patient C, March 2017): 13.67 | L (Wet) (Patient C, May 2017): 73.69 | a. Wet after “μ” (Patient C, May 2017): 3.1 | b (Wet) (Patient C, May 2017): 15.17 | L (Wet) (Patient C, November 2016): 71.42 | a. Wet after “μ” (Patient C, November 2016): 4.99 | b (Wet) (Patient C, November 2016): 14.01 | effect on flow to the microvascular circulation of the endothelium (a shift after μ) (Patients A, B, C, at rest, over 9 months, maximized titration): a decrease in the flow to the microvascular circulation of the endothelium at rest
